Experimental findings from patent US20090274698A1, “Combination anti-cancer therapy” (priority 2007, published 2009) are described below.

The test system of one experiment is pAkt. The experiment is described as follows: Western blot of pAkt in a panel of cell lines from various tumor types. It is filed as cell-based, human.
For a further experiment, the system named is tumor cell lines. The experiment is described as follows: Anti-proliferative activity across tumor cell lines (statement of the description). It is filed as cell-based.
For experiment [1], the system named is pAkt-S473 in ovarian carcinoma cell lines (Ovcar3, SKov3, MDAH 2774, CaOV3). In words: Western blot of phospho-Akt(S473) in ovarian carcinoma cell lines, cisplatin study (FIG. 8). The note with it: 10 nM rapamycin, 20 μM Compound A, 30 μM cisplatin, 24 hours. (In general: Immunoblotting shows a protein as a band on a membrane.)
Description: Band density was determined and relative levels of phospho-Akt(S473) are expressed graphically relative to DMSO-treated control lysate. Four ovarian cell lines were assayed (A) Ovcar3, (B) SKov3, (C) MDAH 2774, (D) CaOV3.
(§1) Cell extracts were prepared by detergent lysis (50 mM Tris-HCl, pH 8.0, 150 mM NaCl, 1% NP-40, 0.5% sodium deoxycholate, 0.1% SDS, containing protease inhibitor (P8340, Sigma, St. Louis, Mo.) and phosphatase inhibitor (P5726, Sigma, St. Louis, Mo.) cocktails. The soluble protein concentration was determined by micro-BSA assay (Pierce, Rockford Ill.). Protein immunodetection was performed by electrophoretic transfer of SDS-PAGE separated proteins to nitrocellulose, incubation with antibody, and chemiluminescent second step detection (PicoWest; Pierce, Rockford, Ill.). The antibodies included: phospho-Akt(473), phospho-Akt(308), and total Akt. All antibodies were obtained from Cell Signaling Technology, Inc. (Danvers, Mass.). For analysis of an agent's effect on the phosphorylation of downstream signaling proteins, cell lines were grown to approximately 70% confluency, at which time the indicated agent was added at the indicated concentration, and cells were incubated at 37° C. for 24 hours. The media was removed, cells were washed two times with PBS, and cells were lysed as previously described.
For the next experiment, the system named is MDA-MB-231 cells. In words: Apoptosis (Caspase 3/7 Glo) in MDA-MB-231 cells. The note with it: MDA-MB-231, 24 hours, Caspase 3/7 activity. It is filed as cell-based, human. The protocol: Apoptosis was measured 24 hrs after treatment. […] Measurements were made 24 hours after treatments, and apoptosis was evaluated by fold induction in Caspase 3/7 activity.

Experiment [2] has as its system pAkt (Ser 473) in MDA-MB-231 tumor cells. The experiment is described as follows: Western blot of pAkt (Ser 473) in MDA-MB-231 tumor cells. The note with it: MDA-MB-231, 24 hours.
Description: Cells were treated for 24 hours prior to harvesting lysates. Ctrl=control.
as §1
Experiment [3] deals with pAkt (serine 473) in ovarian tumor cells. The experiment is described as follows: Western blot of pAkt (serine 473) in ovarian cell lines, gemcitabine study (FIG. 11A). To be noted: gemcitabine 1 μM, Compound B 10 μM, rapamycin 10 nM, 24 hours. It is filed as cell-based, human.
Description: as §1
Experiment [4] has as its system pAkt (Ser 473) in Ovcar3 cells. In words: Western blot of pAkt (Ser 473) in Ovcar3 cells (FIG. 9, 10). It is filed as cell-based, human. The note with it: Ovcar3, 24 hours; 10 nM rapamycin, 10 μM irinotecan. From the text: FIG. 9. Compound B inhibits irinotecan-induced Akt phosphorylation and enhances irinotecan-induced apoptosis in ovarian tumor cells. […] Phospho-Akt was detected using an antoibody specific to Serine 473. […] Apoptosis is expressed as the fold increase in induction relative to DMSO-treated cells.
FIG. 10. Compound B inhibits doxorubicin-induced Akt phosphorylation and enhances doxorubicin-induced apoptosis in ovarian tumor cells. […] Phospho-Akt was detected using an antibody specific to Serine 473. […] Apoptosis is expressed as the fold increase in induction relative to DMSO-treated cells.

As for `CO[C@H]1C[C@@H]2CC[C@@H](C)[C@@](O)(O2)C(=O)C(=O)N2CCCC[C@H]2C(=O)O[C@H]([C@H](C)C[C@@H]2CC[C@@H](O)[C@H](OC)C2)CC(=O)[C@H](C)/C=C(\C)[C@@H](O)[C@@H](OC)C(=O)[C@H](C)C[C@H](C)/C=C/C=C/C=C/1C` [Rapamycin], the “tumor cells tested in which pAKT is induced” value with pAkt (Table 2) was about 62%. In addition, in the experiment on pAkt (statement of the description), the “cancer cell lines in which pAkt (S473) is inhibited” value is reported as about 20% and the “cell lines in which treatment increases pAkt (S473)” value is on record as about 65%. Besides, in the experiment on tumor cell lines, the “cell lines in a given tumor type that are insensitive (anti-proliferative activity)” value is listed as “approximately 50%”.

Consider `N.N.[Cl][Pt][Cl]` [cisplatin], for which the “effect on pAkt-S473, single agent” value in experiment [1] is on record as “promotes an increase in Akt phosphorylation”.

As for `COc1cccc2c1C(=O)c1c(O)c3c(c(O)c1C2=O)C[C@@](O)(C(=O)CO)C[C@@H]3O[C@H]1C[C@H](N)[C@H](O)[C@H](C)O1` [doxorubicin], the “induction in apoptosis, single agent” value in the experiment on MDA-MB-231 cells is “no significant induction in apoptosis”. Further, the “effect on pAkt-S473, single agent” value in experiment [2] is recorded as “promotes an increase in Akt phosphorylation”.

On to `Nc1ccn([C@@H]2O[C@H](CO)[C@@H](O)C2(F)F)c(=O)n1` [gemcitabine], for which the “effect on Akt phosphorylation (serine 473), single agent” value in experiment [3] is recorded as “increased Akt phosphorylation on serine 473”.

In the case of `CCc1c2c(nc3ccc(OC(=O)N4CCC(N5CCCCC5)CC4)cc13)-c1cc3c(c(=O)n1C2)COC(=O)[C@]3(O)CC` [irinotecan], the “effect on pAkt levels, single agent” value in experiment [4] is reported as “causes an induction in pAkt levels”.
